Reference: patent publication US11452727B2, “Combination therapy for treating cancer” (Epizyme, Inc., priority 2017, dated 2022)

Assays:
Assay in all cases: In vitro combination study with tazemetostat, cell proliferation (Cell Titer Glo)
NCI-H23 = conditions: 7 days tazemetostat pre-treatment, 6 days co-treatment with second agent
NCI-H460 = conditions: 7 days tazemetostat pre-treatment, 6 days co-treatment with second agent
Method: (§1) Initial proliferation studies were performed to determine the IC50 of tazemetostat in each cell line. For the screen, tazemetostat was used at concentrations bracketed around the IC50 value. If 50% inhibitory concentration was not reached then tazemetostat was tested starting at 10 μM.
(§2) In order to study the effect of dual combination of tazemetostat and a second agent on cell proliferation, cells in log-linear phase growth rate were pre-treated with various concentrations of tazemetostat or DMSO for 7 days in flasks, plated in 384-well plates in the absence of compounds and co-treated on day 8 with tazemetostat or DMSO and the second agent serially diluted for additional 6 days (as depicted in FIG. 1). On day 15, plates were developed for endpoint analysis using Cell Titer Glo to measure ATP content, which was used as an indicator of cell viability. DMSO concentration was kept constant throughout the assay at 0.15% v/v.
All cell lines were obtained from American Type Culture Collection (ATCC; Rockville, Md.). […] A427, Calu-3, Calu-6 cell lines were cultured in EMEM+10% Fetal bovine serum (FBS)+1% v/v Penicillin/Streptomycin (P/S).

Calu-3 = conditions: 7 days tazemetostat pre-treatment, 6 days co-treatment with second agent
Calu-6 = conditions: 7 days tazemetostat pre-treatment, 6 days co-treatment with second agent
Method: as §1, §2

NCI-H2110 = conditions: 7 days tazemetostat pre-treatment, 6 days co-treatment with second agent
A549 = conditions: 7 days tazemetostat pre-treatment, 6 days co-treatment with second agent
NCI-H1993 = conditions: 7 days tazemetostat pre-treatment, 6 days co-treatment with second agent
NCI-H838 = conditions: 7 days tazemetostat pre-treatment, 6 days co-treatment with second agent
Method: as §1, §2
(§3) NCI-H1573 was cultured in DMEM: F12 Medium containing the following components: 0.02 mg/ml insulin, 0.01 mg/ml transferrin, 25 nM sodium selenite, 50 nM Hydrocortisone, 1 ng/ml Epidermal Growth Factor, 0.01 mM ethanolamine, 0.01 mM phosphorylethanolamine, 100 pM triiodothyronine, 0.5% (w/v) bovine serum albumin, 0.5 mM sodium pyruvate, 4.5 mM L-glutamine and 1% v/v Pen/Strep.

HCC827 = conditions: 7 days tazemetostat pre-treatment, 6 days co-treatment with second agent
Method: as §1, §2, §3

NCI-H1573 = conditions: 7 days tazemetostat pre-treatment, 6 days co-treatment with second agent
NCI-H1793 = conditions: 7 days tazemetostat pre-treatment, 6 days co-treatment with second agent
NCI-H2122 = conditions: 7 days tazemetostat pre-treatment, 6 days co-treatment with second agent
NCI-H1703 = conditions: 7 days tazemetostat pre-treatment, 6 days co-treatment with second agent
A427 = conditions: A427; 7 days tazemetostat pre-treatment, 6 days co-treatment with second agent
NCI-H2030 = conditions: 7 days tazemetostat pre-treatment, 6 days co-treatment with second agent
Method: as §1, §2

NCI-H1299 = conditions: 7 days tazemetostat pre-treatment, 6 days co-treatment with second agent
Method: as §1, §2

NCI-H522 = conditions: 7 days tazemetostat pre-treatment, 6 days co-treatment with second agent
Method: as §1, §2

NCI-H661 = conditions: 7 days tazemetostat pre-treatment, 6 days co-treatment with second agent

SMILES: CC(=O)O[C@@]12CO[C@@H]1C[C@H](O)[C@@]1(C)C(=O)[C@H](O)C3=C(C)[C@@H](OC(=O)[C@H](O)[C@@H](NC(=O)OC(C)(C)C)c4ccccc4)C[C@@](O)([C@@H](OC(=O)c4ccccc4)[C@H]21)C3(C)C [Docetaxel, docetaxel]
- combinatorial effect with tazemetostat (Loewe volume class) (NCI-H23): Add. (A value between −1 and 1 denoted “additivity”)
- combinatorial effect with tazemetostat (Loewe volume class) (NCI-H460): Syn. (Loewe volumes greater than 1 denoted “synergy”)
- combinatorial effect with tazemetostat (Loewe volume class) (Calu-3): Syn. (Loewe volumes greater than 1 denoted “synergy”)
- combinatorial effect with tazemetostat (Loewe volume class) (Calu-6): Add. (A value between −1 and 1 denoted “additivity”)
- combinatorial effect with tazemetostat (Loewe volume class) (NCI-H2110): Add. (A value between −1 and 1 denoted “additivity”)
- combinatorial effect with tazemetostat (Loewe volume class) (A549): Add. (A value between −1 and 1 denoted “additivity”)
- combinatorial effect with tazemetostat (Loewe volume class) (NCI-H1993): Add. (A value between −1 and 1 denoted “additivity”)
- combinatorial effect with tazemetostat (Loewe volume class) (NCI-H838): Add. (A value between −1 and 1 denoted “additivity”)
- combinatorial effect with tazemetostat (Loewe volume class) (HCC827): Add. (A value between −1 and 1 denoted “additivity”)
- combinatorial effect with tazemetostat (Loewe volume class) (NCI-H1573): Add. (A value between −1 and 1 denoted “additivity”)
- combinatorial effect with tazemetostat (Loewe volume class) (NCI-H1793): Syn. (Loewe volumes greater than 1 denoted “synergy”)
- combinatorial effect with tazemetostat (Loewe volume class) (NCI-H2122): Add. (A value between −1 and 1 denoted “additivity”)
- combinatorial effect with tazemetostat (Loewe volume class) (NCI-H1703): Add. (A value between −1 and 1 denoted “additivity”)
- combinatorial effect with tazemetostat (Loewe volume class) (A427): Syn. (Loewe volumes greater than 1 denoted “synergy”)
- combinatorial effect with tazemetostat (Loewe volume class) (NCI-H2030): Syn. (Loewe volumes greater than 1 denoted “synergy”)
- combinatorial effect with tazemetostat (Loewe volume class) (NCI-H1299): Syn. (Loewe volumes greater than 1 denoted “synergy”)
- combinatorial effect with tazemetostat (Loewe volume class) (NCI-H522): Add. (A value between −1 and 1 denoted “additivity”)
- combinatorial effect with tazemetostat (Loewe volume class) (NCI-H661): Syn. (Loewe volumes greater than 1 denoted “synergy”)

SMILES: Nc1ccn([C@@H]2O[C@H](CO)[C@@H](O)C2(F)F)c(=O)n1 [Gemcitabine, gemcitabine]
- combinatorial effect with tazemetostat (Loewe volume class) (NCI-H23): Add. (A value between −1 and 1 denoted “additivity”)
- combinatorial effect with tazemetostat (Loewe volume class) (NCI-H460): Add. (A value between −1 and 1 denoted “additivity”)
- combinatorial effect with tazemetostat (Loewe volume class) (Calu-3): Add. (A value between −1 and 1 denoted “additivity”)
- combinatorial effect with tazemetostat (Loewe volume class) (Calu-6): Add. (A value between −1 and 1 denoted “additivity”)
- combinatorial effect with tazemetostat (Loewe volume class) (NCI-H2110): Anta. (volumes <−1 denoted “antagonism”)
- combinatorial effect with tazemetostat (Loewe volume class) (A549): Add. (A value between −1 and 1 denoted “additivity”)
- combinatorial effect with tazemetostat (Loewe volume class) (NCI-H1993): Add. (A value between −1 and 1 denoted “additivity”)
- combinatorial effect with tazemetostat (Loewe volume class) (NCI-H838): Add. (A value between −1 and 1 denoted “additivity”)
- combinatorial effect with tazemetostat (Loewe volume class) (HCC827): Add. (A value between −1 and 1 denoted “additivity”)
- combinatorial effect with tazemetostat (Loewe volume class) (NCI-H1573): Add. (A value between −1 and 1 denoted “additivity”)
- combinatorial effect with tazemetostat (Loewe volume class) (NCI-H1793): Add. (A value between −1 and 1 denoted “additivity”)
- combinatorial effect with tazemetostat (Loewe volume class) (NCI-H2122): Add. (A value between −1 and 1 denoted “additivity”)
- combinatorial effect with tazemetostat (Loewe volume class) (NCI-H1703): Add. (A value between −1 and 1 denoted “additivity”)
- combinatorial effect with tazemetostat (Loewe volume class) (A427): Syn. (Loewe volumes greater than 1 denoted “synergy”)
- combinatorial effect with tazemetostat (Loewe volume class) (NCI-H2030): Add. (A value between −1 and 1 denoted “additivity”)
- combinatorial effect with tazemetostat (Loewe volume class) (NCI-H1299): Add. (A value between −1 and 1 denoted “additivity”)
- combinatorial effect with tazemetostat (Loewe volume class) (NCI-H522): Anta. (volumes <−1 denoted “antagonism”)
- combinatorial effect with tazemetostat (Loewe volume class) (NCI-H661): Syn. (Loewe volumes greater than 1 denoted “synergy”)

SMILES: C=CCn1c(=O)c2cnc(Nc3ccc(N4CCN(C)CC4)cc3)nc2n1-c1cccc(C(C)(C)O)n1 [MK-1775]
- combinatorial effect with tazemetostat (Loewe volume class) (NCI-H23): Syn. (Loewe volumes greater than 1 denoted “synergy”)
- combinatorial effect with tazemetostat (Loewe volume class) (NCI-H460): Add. (A value between −1 and 1 denoted “additivity”)
- combinatorial effect with tazemetostat (Loewe volume class) (Calu-3): Add. (A value between −1 and 1 denoted “additivity”)
- combinatorial effect with tazemetostat (Loewe volume class) (Calu-6): Syn. (Loewe volumes greater than 1 denoted “synergy”)
- combinatorial effect with tazemetostat (Loewe volume class) (NCI-H2110): Add. (A value between −1 and 1 denoted “additivity”)
- combinatorial effect with tazemetostat (Loewe volume class) (A549): Add. (A value between −1 and 1 denoted “additivity”)
- combinatorial effect with tazemetostat (Loewe volume class) (NCI-H1993): Add. (A value between −1 and 1 denoted “additivity”)
- combinatorial effect with tazemetostat (Loewe volume class) (NCI-H838): Add. (A value between −1 and 1 denoted “additivity”)
- combinatorial effect with tazemetostat (Loewe volume class) (HCC827): Add. (A value between −1 and 1 denoted “additivity”)
- combinatorial effect with tazemetostat (Loewe volume class) (NCI-H1573): Syn. (Loewe volumes greater than 1 denoted “synergy”)
- combinatorial effect with tazemetostat (Loewe volume class) (NCI-H1793): Syn. (Loewe volumes greater than 1 denoted “synergy”)
- combinatorial effect with tazemetostat (Loewe volume class) (NCI-H2122): Add. (A value between −1 and 1 denoted “additivity”)
- combinatorial effect with tazemetostat (Loewe volume class) (NCI-H1703): Syn. (Loewe volumes greater than 1 denoted “synergy”)
- combinatorial effect with tazemetostat (Loewe volume class) (A427): Syn. (Loewe volumes greater than 1 denoted “synergy”)
- combinatorial effect with tazemetostat (Loewe volume class) (NCI-H2030): Syn. (Loewe volumes greater than 1 denoted “synergy”)
- combinatorial effect with tazemetostat (Loewe volume class) (NCI-H1299): Add. (A value between −1 and 1 denoted “additivity”)
- combinatorial effect with tazemetostat (Loewe volume class) (NCI-H522): Syn. (Loewe volumes greater than 1 denoted “synergy”)
- combinatorial effect with tazemetostat (Loewe volume class) (NCI-H661): Syn. (Loewe volumes greater than 1 denoted “synergy”)

SMILES: CC(=O)c1c(C)c2cnc(Nc3ccc(N4CCNCC4)cn3)nc2n(C2CCCC2)c1=O [Palbociclib, palbociclib]
- combinatorial effect with tazemetostat (Loewe volume class) (NCI-H23): Syn. (Loewe volumes greater than 1 denoted “synergy”)
- combinatorial effect with tazemetostat (Loewe volume class) (NCI-H460): Add. (A value between −1 and 1 denoted “additivity”)
- combinatorial effect with tazemetostat (Loewe volume class) (Calu-3): Add. (A value between −1 and 1 denoted “additivity”)
- combinatorial effect with tazemetostat (Loewe volume class) (Calu-6): Add. (A value between −1 and 1 denoted “additivity”)
- combinatorial effect with tazemetostat (Loewe volume class) (NCI-H2110): Add. (A value between −1 and 1 denoted “additivity”)
- combinatorial effect with tazemetostat (Loewe volume class) (A549): Add. (A value between −1 and 1 denoted “additivity”)
- combinatorial effect with tazemetostat (Loewe volume class) (NCI-H1993): Syn. (Loewe volumes greater than 1 denoted “synergy”)
- combinatorial effect with tazemetostat (Loewe volume class) (NCI-H838): Add. (A value between −1 and 1 denoted “additivity”)
- combinatorial effect with tazemetostat (Loewe volume class) (HCC827): Add. (A value between −1 and 1 denoted “additivity”)
- combinatorial effect with tazemetostat (Loewe volume class) (NCI-H1573): Syn. (Loewe volumes greater than 1 denoted “synergy”)
- combinatorial effect with tazemetostat (Loewe volume class) (NCI-H1793): Syn. (Loewe volumes greater than 1 denoted “synergy”)
- combinatorial effect with tazemetostat (Loewe volume class) (NCI-H2122): Anta. (volumes <−1 denoted “antagonism”)
- combinatorial effect with tazemetostat (Loewe volume class) (NCI-H1703): Anta. (volumes <−1 denoted “antagonism”)
- combinatorial effect with tazemetostat (Loewe volume class) (A427): Syn. (Loewe volumes greater than 1 denoted “synergy”)
- combinatorial effect with tazemetostat (Loewe volume class) (NCI-H2030): Add. (A value between −1 and 1 denoted “additivity”)
- combinatorial effect with tazemetostat (Loewe volume class) (NCI-H1299): Anta. (volumes <−1 denoted “antagonism”)
- combinatorial effect with tazemetostat (Loewe volume class) (NCI-H522): No eff.
- combinatorial effect with tazemetostat (Loewe volume class) (NCI-H661): Syn. (Loewe volumes greater than 1 denoted “synergy”)
